Measured values taken from ChEMBL document CHEMBL1151780, “Correlation of inhibitor effects on enzyme activity and thermal stability for the integral membrane protein fatty acid amide hydrolase” (Bioorg Med Chem Lett, 2008).
pKi: −log10 of the molar value.

Molecular target: T1, Fatty-acid amide hydrolase 1 (Homo sapiens, UniProt O00519)
T1 sequence (O00519 whole entry): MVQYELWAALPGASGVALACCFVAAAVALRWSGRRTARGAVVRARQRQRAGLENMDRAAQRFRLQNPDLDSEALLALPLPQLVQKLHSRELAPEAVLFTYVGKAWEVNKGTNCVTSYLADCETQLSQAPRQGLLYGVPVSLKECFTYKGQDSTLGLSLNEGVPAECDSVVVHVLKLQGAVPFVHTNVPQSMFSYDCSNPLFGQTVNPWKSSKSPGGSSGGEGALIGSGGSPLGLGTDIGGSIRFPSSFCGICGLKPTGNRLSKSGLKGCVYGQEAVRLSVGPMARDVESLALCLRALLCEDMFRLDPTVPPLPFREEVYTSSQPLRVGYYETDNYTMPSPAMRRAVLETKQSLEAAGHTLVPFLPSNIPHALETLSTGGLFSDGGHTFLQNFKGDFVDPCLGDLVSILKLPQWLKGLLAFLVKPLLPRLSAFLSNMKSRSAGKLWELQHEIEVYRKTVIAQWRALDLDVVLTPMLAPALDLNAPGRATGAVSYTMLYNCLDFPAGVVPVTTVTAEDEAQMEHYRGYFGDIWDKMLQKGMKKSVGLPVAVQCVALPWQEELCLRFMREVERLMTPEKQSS
Assay: Inhibition of FAAH at pH 7.5

Question: How did the pKi turn out when `O=C(O)c1cccc(-c2cnc(C(=O)CCCCCCc3ccccc3)o2)n1` was run?
Answer: The pKi was 7.98.

Molecular target: T1, Fatty-acid amide hydrolase 1
Assay: Inhibition of FAAH at pH 9

Question: How did the pKi turn out when `O=C(O)c1cccc(-c2cnc(C(=O)CCc3ccc(-c4ccccc4)cc3)o2)n1` was run?
Answer: The pKi was 7.66.

Question: How did the pKi turn out when `O=C(O)c1cccc(-c2cnc(C(=O)CCc3ccc(-c4ccc(CN5CCSCC5)cc4)cc3)o2)n1` was run?
Answer: The pKi was 7.55.

Question: `O=C(CCCCCCc1ccccc1)c1ncc(-c2cccc(-c3nnn[nH]3)n2)o1` was tested. Which pKi did it give?
Answer: Its pKi is 7.40.

Question: How did the pKi turn out when `O=C(O)c1cccc(-c2nnc(C(=O)CCCCCCc3ccccc3)o2)n1` was run?
Answer: Its pKi is 7.85.

Question: With `O=C(CCCCCCc1ccccc1)c1nnc(-c2ccccn2)o1` as the molecule, how does the pKi read?
Answer: Its pKi is 9.54.

Molecular target: T2, Fatty-acid amide hydrolase 1 (Homo sapiens) (UniProt O00519)
T2 sequence (whole entry): T1 sequence (O00519 whole entry)
Description: Binding affinity to FAAH assessed as thermal stability by measuring melting temperature

Question: How did the Tm turn out when `NC(=O)c1cccc(-c2cnc(C(=O)CCCCCCc3ccccc3)o2)n1` was run?
Answer: Its Tm is 55 °C.

Question: For `O=C(CCc1ccc(-c2ccccc2)cc1)c1ncc(-c2ccccn2)o1`, which Tm is on record?
Answer: Its Tm is 59.9 °C.

Question: `O=C(O)c1cccc(-c2cnc(C(=O)CCc3ccc(-c4ccc(CN5CCSCC5)cc4)cc3)o2)n1` was tested. Which Tm did it give?
Answer: Its Tm is 65.3 °C.

Question: For `COC(=O)c1cccc(-c2cnc(C(=O)CCCCCCc3ccccc3)o2)n1`, which Tm is on record?
Answer: The Tm was 53.4 °C.

Question: With `O=C(CCCCCCc1ccccc1)c1ncc(-c2cccc(-c3nnn[nH]3)n2)o1` as the molecule, how does the Tm read?
Answer: The Tm was 54.7 °C.

Question: `O=C(CCCCCCc1ccccc1)c1ncc(-c2ccccc2)o1` was tested. Which Tm did it give?
Answer: The Tm was 47.2 °C.

Question: With `O=C(CCCCCCc1ccccc1)c1ncc(-c2ccccn2)o1` as the molecule, how does the Tm read?
Answer: Its Tm is 58.5 °C.

Question: For `O=C(O)c1cccc(-c2nnc(C(=O)CCCCCCc3ccccc3)o2)n1`, which Tm is on record?
Answer: The Tm was 64.3 °C.

Question: How did the Tm turn out when `O=C(CCCCCCc1ccccc1)c1nnc(-c2ccccn2)o1` was run?
Answer: Its Tm is 60.6 °C.
